Reference: patent US6479435B1, “Diaryl ethers and processes for their preparation and herbicidal and desiccant compositions containing them” (ISK Americas Incorporated, priority 1997, dated 2002)

What was measured:
Type in all cases: in vivo
[1] = tested on: Johnsongrass (Sorghum halepense, SORHA); assay: Pre-emerge greenhouse herbicide test, phytotoxicity rating; conditions: 14 days after application, rating scale 0-100
Procedure, shortened: (§1)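 Seeds sown in sandy loam mix one day before track-sprayer application of compounds in acetone at 125–1000 g ai/ha (187 l/ha), then surface-watered to incorporate and bottom-watered. Visual rating 14 days after application on a 0–100 scale (0 = no damage, 100 = all plants dead).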

[2] = tested on: barnyardgrass (Echinochloa crusgalli, ECHCG); assay: as above; conditions: 14 days after application, rating scale 0-100
Procedure, shortened: as §1

[3] = tested on: common ragweed (Ambrosia artemisiifolia L., AMBEL); assay: as above; conditions: 14 days after application, rating scale 0-100
Procedure, shortened: as §1

[4] = tested on: green foxtail (Setaria viridis, SETVI); assay: as above; conditions: 14 days after application, rating scale 0-100
Procedure, shortened: as §1

[5] = tested on: ivyleaf morningglory (Ipomoea hederacea, IPOHE); assay: as above; conditions: 14 days after application, rating scale 0-100
Procedure, shortened: as §1

[6] = tested on: lambsquarters (Chenopodium album, CHEAL); assay: as above; conditions: 14 days after application, rating scale 0-100
Procedure, shortened: as §1

[7] = tested on: large crabgrass (Digitaria sanguinalis, DIGSA); assay: as above; conditions: 14 days after application, rating scale 0-100
Procedure, shortened: as §1

[8] = tested on: redroot pigweed (Amaranthus retroflexus, AMARE); assay: as above; conditions: 14 days after application, rating scale 0-100
Procedure, shortened: as §1

[9] = tested on: sicklepod (Cassia obtusifolia, CASOB); assay: as above; conditions: 14 days after application, rating scale 0-100
Procedure, shortened: as §1

[10] = tested on: velvetleaf (Abutilon theophrasti, ABUTH); assay: as above; conditions: 14 days after application, rating scale 0-100
Procedure, shortened: as §1

[11] = tested on: field corn (Zea mays L., var. Dekalb 535, CORN); assay: Pre-emerge greenhouse test, crop damage rating; conditions: 14 days after application, rating scale 0-100
Procedure, shortened: as §1

[12] = tested on: upland rice (Oryza sp., var.Tebonnet, RICE); assay: Pre-emerge greenhouse test, crop damage rating; conditions: 14 days after application, rating scale 0-100
Procedure, shortened: as §1

[13] = tested on: soybean (Glycine max L., var. Pella 86, SOY); assay: Pre-emerge greenhouse test, crop damage rating; conditions: 14 days after application, rating scale 0-100
Procedure, shortened: as §1

[14] = tested on: common ragweed (Ambrosia artemisiifolia L., AMBEL); assay: Post-emerge greenhouse herbicide test, phytotoxicity rating; conditions: 14 days after application
Procedure, shortened: (§2)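 Compounds in acetone with 0.25% v/v non-ionic surfactant were track-sprayed at 187 l/ha over plants at the 2-3 leaf stage, at 63 to 1000 g ai/ha. Pots were bottom-watered. Injury was scored visually 14 days later on a 0-100 scale, where 0 is no damage and 100 is complete plant death.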

[15] = tested on: Johnsongrass (Sorghum halepense, SORHA); assay: as above; conditions: 14 days after application
Procedure, shortened: as §2

[16] = tested on: barnyardgrass (Echinochloa crusgalli, ECHCG); assay: as above; conditions: 14 days after application
Procedure, shortened: as §2

[17] = tested on: green foxtail (Setaria viridis, SETVI); assay: as above; conditions: 14 days after application
Procedure, shortened: as §2

[18] = tested on: ivyleaf morningglory (Ipomoea hederacea, IPOHE); assay: as above; conditions: 14 days after application
Procedure, shortened: as §2

[19] = tested on: lambsquarters (Chenopodium album, CHEAL); assay: as above; conditions: 14 days after application
Procedure, shortened: as §2

[20] = tested on: large crabgrass (Digitaria sanguinalis, DIGSA); assay: as above; conditions: 14 days after application
Procedure, shortened: as §2

[21] = tested on: redroot pigweed (Amaranthus retroflexus, AMARE); assay: as above; conditions: 14 days after application
Procedure, shortened: as §2

[22] = tested on: sicklepod (Cassia obtusifolia, CASOB); assay: as above; conditions: 14 days after application
Procedure, shortened: as §2

[23] = tested on: velvetleaf (Abutilon theophrasti, ABUTH); assay: as above; conditions: 14 days after application
Procedure, shortened: as §2

[24] = tested on: field corn (Zea mays L., var. Dekalb 535, CORN); assay: Post-emerge greenhouse test, crop damage rating; conditions: 14 days after application
Procedure, shortened: as §2

[25] = tested on: upland rice (Oryza sp., var.Tebonnet, RICE); assay: Post-emerge greenhouse test, crop damage rating; conditions: 14 days after application
Procedure, shortened: as §2

[26] = tested on: soybean (Glycine max L., var. Pella 86, SOY); assay: Post-emerge greenhouse test, crop damage rating; conditions: 14 days after application
Procedure, shortened: as §2

CN1CC(=O)N(c2cc(Oc3ncccn3)c(Cl)cc2F)C1=O [Compound 8-3]
phytotoxicity rating SORHA ([1]; 125 g ai/ha): 0 | phytotoxicity rating SORHA ([1]; 500 g ai/ha): 40 | phytotoxicity rating ECHCG ([2]; 125 g ai/ha): 0 | phytotoxicity rating ECHCG ([2]; 500 g ai/ha): 10 | phytotoxicity rating AMBEL ([3]; 125 g ai/ha): 20 | phytotoxicity rating AMBEL ([3]; 500 g ai/ha): 60 | phytotoxicity rating SETVI ([4]; 125 g ai/ha): 0 | phytotoxicity rating SETVI ([4]; 500 g ai/ha): 70 | phytotoxicity rating IPOHE ([5]; 125 g ai/ha): 10 | phytotoxicity rating IPOHE ([5]; 500 g ai/ha): 60 | phytotoxicity rating CHEAL ([6]; 125 g ai/ha): 80 | phytotoxicity rating CHEAL ([6]; 500 g ai/ha): 100 | phytotoxicity rating DIGSA ([7]; 125 g ai/ha): 0 | phytotoxicity rating DIGSA ([7]; 500 g ai/ha): 90 | phytotoxicity rating AMARE ([8]; 125 g ai/ha): 10 | phytotoxicity rating AMARE ([8]; 500 g ai/ha): 100 | phytotoxicity rating CASOB ([9]; 125 g ai/ha): 0 | phytotoxicity rating CASOB ([9]; 500 g ai/ha): 0 | phytotoxicity rating ABUTH ([10]; 125 g ai/ha): 20 | phytotoxicity rating ABUTH ([10]; 500 g ai/ha): 70 | crop damage rating CORN ([11]; 125 g ai/ha): 0 | crop damage rating CORN ([11]; 500 g ai/ha): 5 | crop damage rating RICE ([12]; 125 g ai/ha): 0 | crop damage rating RICE ([12]; 500 g ai/ha): 30 | crop damage rating SOY ([13]; 125 g ai/ha): 0 | crop damage rating SOY ([13]; 500 g ai/ha): 10 | AMBEL phytotoxicity rating (0-100) ([14]; 63 g al/ha): 20 | AMBEL phytotoxicity rating (0-100) ([14]; 500 g al/ha): 60 | SORHA phytotoxicity rating (0-100) ([15]; 63 g al/ha): 0 | SORHA phytotoxicity rating (0-100) ([15]; 500 g al/ha): 0 | ECHCG phytotoxicity rating (0-100) ([16]; 63 g al/ha): 0 | ECHCG phytotoxicity rating (0-100) ([16]; 500 g al/ha): 0 | SETVI phytotoxicity rating (0-100) ([17]; 63 g al/ha): 0 | SETVI phytotoxicity rating (0-100) ([17]; 500 g al/ha): 0 | IPOHE phytotoxicity rating (0-100) ([18]; 63 g al/ha): 60 | IPOHE phytotoxicity rating (0-100) ([18]; 500 g al/ha): 90 | CHEAL phytotoxicity rating (0-100) ([19]; 63 g al/ha): 50 | CHEAL phytotoxicity rating (0-100) ([19]; 500 g al/ha): 85 | DIGSA phytotoxicity rating (0-100) ([20]; 63 g al/ha): 0 | DIGSA phytotoxicity rating (0-100) ([20]; 500 g al/ha): 0 | AMARE phytotoxicity rating (0-100) ([21]; 63 g al/ha): 20 | AMARE phytotoxicity rating (0-100) ([21]; 500 g al/ha): 75 | CASOB phytotoxicity rating (0-100) ([22]; 63 g al/ha): 0 | CASOB phytotoxicity rating (0-100) ([22]; 500 g al/ha): 0 | ABUTH phytotoxicity rating (0-100) ([23]; 63 g al/ha): 10 | ABUTH phytotoxicity rating (0-100) ([23]; 500 g al/ha): 75 | CORN crop damage rating (0-100) ([24]; 63 g al/ha): 0 | CORN crop damage rating (0-100) ([24]; 500 g al/ha): 0 | RICE crop damage rating (0-100) ([25]; 63 g al/ha): 0 | RICE crop damage rating (0-100) ([25]; 500 g al/ha): 0 | SOY crop damage rating (0-100) ([26]; 63 g al/ha): 10 | SOY crop damage rating (0-100) ([26]; 500 g al/ha): 50
